This note sets out measurements from patent US8703776B2 (Cymabay Therapeutics, Inc., priority 2011, dated 2014).

Structures are written as SMILES.

In the assay the target is T1, human GPR131 (Homo sapiens, UniProt Q8TDU6).
T1 construct: expressed in transfected cells
T1 sequence (Q8TDU6 1-330): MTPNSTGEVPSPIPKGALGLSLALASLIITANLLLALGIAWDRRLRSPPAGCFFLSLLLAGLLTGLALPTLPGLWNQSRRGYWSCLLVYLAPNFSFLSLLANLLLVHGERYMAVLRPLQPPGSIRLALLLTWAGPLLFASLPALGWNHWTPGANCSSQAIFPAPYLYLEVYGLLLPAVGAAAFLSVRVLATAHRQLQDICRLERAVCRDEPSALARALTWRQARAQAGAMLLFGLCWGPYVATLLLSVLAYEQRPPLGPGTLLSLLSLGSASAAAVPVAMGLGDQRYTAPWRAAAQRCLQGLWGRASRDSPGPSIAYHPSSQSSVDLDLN
The assay is described as follows: Stimulation of cAMP in stable cell line expressing human GPR131 (FRET cAMP kit). The assay is classed as cell-based. Particulars: 0.5 h; 1.1 μM compound, relative to maximal stimulatory activity of lithocholic acid at 3.3 μM; 30 minutes at 37° C.; read-out: Percent Activity @ 1.1 μM (of 3.3 uM LCA) (%). As to the method: This assay was developed using a stable cell line expressing human GPR131.
To measure cAMP activity in response to GPR131 agonists, GPR131 cells suspended in DMEM/F12 medium with 1 mM IBMX were seeded in 384 well plates at 5000 cells per well. After incubating with test compounds at 37° C. for 30 minutes cAMP was measured using a fluorescene resonance energy transfer cAMP kit from Cis Bio (Bedford, Mass.) according to the manufacturer's instructions. Briefly, cells were lysed, and cAMP levels determined by competitive immunoassay using D2 labeled cAMP, and europium cryptate tagged anti cAMP antibody. Decreases in the FRET signal (fluorescence ratio (665 nm/620 […]) correspond to increases in intracellular cAMP levels.
Activities of test compounds in Table 1 below are expressed as % activity at 1.1 μM compound compared to the maximal stimulatory activity of lithocholic acid (LCA) (determined at 3.3 μM LCA)
As for `CN(Cc1ccnc(C(F)(F)F)c1)C(=O)c1cnc(SCc2c(F)ccc(F)c2F)n1-c1ccc(F)cc1` [Compound 587], the activation at 1.1 µM is 86%.
As to `Cc1cc(CN(C)C(=O)c2cnc(I)n2-c2ccc(F)cc2)ccn1` [Compound 589, 1-(4-Fluorophenyl)-2-iodo-N-methyl-N-((2-methylpyridin-4-yl)methyl)-1H-imidazole-5-carboxamide], the activation at 1.1 µM came out at 87%.
The result for `Cc1nn(C)cc1CN(C)C(=O)c1cnc(Br)n1-c1ccc(F)cc1` [Compound 590, 2-Bromo-N-((1,3-dimethyl-1H-pyrazol-4-yl)methyl)-1-(4-fluorophenyl)-N-methyl-1H-imidazole-5-carboxamine] reads 86%; that for `COc1ccc(Cl)c(CSc2ncc(C(=O)N3CCCC3c3ccncc3)n2-c2ccc(F)cc2)c1F` (stereo not shown) [Compound 591, (2-((6-Chloro-2-fluoro-3-methoxybenzyl)thio)-1-(4-fluorophenyl)-1H-imidazol-5-yl)(2-(pyridin-4-yl)pyrrolidin-1-yl)methanone], 94%.
For `Cc1nn(C)cc1CN(C)C(=O)c1cnc(SCc2ccccc2)n1-c1ccc(F)cc1` [Compound 593, 2-(Benzylthio)-N-((1,3-dimethyl-1H-pyrazol-4-yl)methyl)-1-(4-fluorophenyl)-N-methyl-1H-imidazole-5-carboxamide] the value was 99%; for `COc1ccc(Cl)c(CSc2nnc(C(=O)N(C)Cc3ccncc3)n2-c2ccc(F)cc2)c1F` [Compound 594, 5-((6-Chloro-2-fluoro-3-methoxybenzyl)thio)-4-(4-fluorophenyl)-N-methyl-N-(pyridin-4-ylmethyl)-4H-1,2,4-triazole-3-carboxamide], 98%.
For `Cc1ccc(Cl)c(CSc2nnc(C(=O)N(C)Cc3ccncc3)n2-c2ccc(F)cc2)c1F` [Compound 595, 5-((6-Chloro-2-fluoro-3-methylbenzyl)thio)-4-(4-fluorophenyl)-N-methyl-N-(pyridin-4-ylmethyl)-4H-1,2,4-triazole-3-carboxamide] the value was 98%; for `COc1ccc(Cl)c(CSc2ncc(C(=O)N(C)Cc3cn(C)nc3C)n2-c2ccc(F)cc2)c1F` [Compound 596, 2-((6-Chloro-2-fluoro-3-methoxybenzyl)thio)-N-((1,3-dimethyl-1H-pyrazol-4-yl)methyl)-1-(4-fluorophenyl)-N-methyl-1H-imidazole-5-carboxamide], 100%.
Regarding `Cc1ccc(Cl)c(CSc2ncc(C(=O)N(C)Cc3cn(C)nc3C)n2-c2ccc(F)cc2)c1F` [Compound 597, 2-((6-Chloro-2-fluoro-3-methylbenzyl)thio)-N-((1,3-dimethyl-1H-pyrazol-4-yl)methyl)-1-(4-fluorophenyl)-N-methyl-1H-imidazole-5-carboxamide], the activation at 1.1 µM is 100%.
The result for `CN(Cc1cccnc1)C(=O)c1cnc(SCc2c(F)ccc(F)c2F)n1-c1ccc(F)cc1` [Compound 603, 1-(4-Fluorophenyl)-N-methyl-N-(pyridin-3-ylmethyl)-2-((2,3,6-trifluorobenzyl)thio)-1H-imidazole-5-carboxamide] reads 82%.
In the case of `Fc1ccc(-n2c(COCc3ccncc3)nnc2SCc2c(F)ccc(F)c2F)cc1` [Compound 606], the activation at 1.1 µM was found to be 98%.
`CN(Cc1ccncc1)C(=O)c1cnc(SCc2c(F)cccc2C(F)(F)F)n1-c1ccc(F)cc1` [Compound 607, 2-((2-Fluoro-6-(trifluoromethyl)benzyl)thio)-1-(4-fluorophenyl)-N-methyl-N-(pyridin-4-ylmethyl)-1H-imidazole-5-carboxamide]: the activation at 1.1 µM is 93%.
On to `CN(Cc1ccncc1)C(=O)c1cnc(SCc2ccc(Cl)cc2C(F)(F)F)n1-c1ccc(F)cc1` [Compound 609, 2-((4-Chloro-2-(trifluoromethyl)benzyl)thio)-1-(4-fluorophenyl)-N-methyl-N-(pyridin-4-ylmethyl)-1H-imidazole-5-carboxamide], for which the activation at 1.1 µM is 86%.
The result for `CN(Cc1ccncc1)C(=O)c1cnc(SCc2cccc(C(F)(F)F)c2F)n1-c1ccc(F)cc1` [Compound 610, 2-((2-Fluoro-3-(trifluoromethyl)benzyl)thio)-1-(4-fluorophenyl)-N-methyl-N-(pyridin-4-ylmethyl)-1H-imidazole-5-carboxamide] reads 100%; that for `CN(Cc1ccncc1)C(=O)c1cnc(SCc2cc(F)ccc2F)n1-c1ccc(F)cc1` [Compound 611, 2-((2,5-Difluorobenzyl)thio)-1-(4-fluorophenyl)-N-methyl-N-(pyridin-4-ylmethyl)-1H-imidazole-5-carboxamide], 99%; that for `COc1ccc(Cl)c(CSc2ncc(C(=O)N(C)Cc3ccncc3)n2-c2ccc(F)cc2)c1F` [Compound 612, 2-((6-Chloro-2-fluoro-3-methoxybenzyl)thio)-1-(4-fluorophenyl)-N-methyl-N-(pyridin-4-ylmethyl)-1H-imidazole-5-carboxamide], 100%.
For `CN(Cc1ccncc1)C(=O)c1cnc(SCc2ccccc2F)n1-c1ccc(F)cc1` [Compound 613, 2-((2-Fluorobenzyl)thio)-1-(4-fluorophenyl)-N-methyl-N-(pyridin-4-ylmethyl)-1H-imidazole-5-carboxamide] the value was 100%.
The result for `CN(Cc1ccncc1)C(=O)c1cnc(SCc2cc(F)ccc2Cl)n1-c1ccc(F)cc1` [Compound 615, 2-((2-Chloro-5-fluorobenzyl)thio)-1-(4-fluorophenyl)-N-methyl-N-(pyridin-4-ylmethyl)-1H-imidazole-5-carboxamide] reads 98%; that for `CN(Cc1ccncc1)C(=O)c1cnc(SCc2cc(Cl)ccc2F)n1-c1ccc(F)cc1` [Compound 616, 2-((5-Chloro-2-fluorobenzyl)thio)-1-(4-fluorophenyl)-N-methyl-N-(pyridin-4-ylmethyl)-1H-imidazole-5-carboxamide], 100%.
Take `CN(Cc1ccncc1)C(=O)c1cnc(SCc2c(F)ccc(F)c2Cl)n1-c1ccc(F)cc1` [Compound 617, 2-((2-Chloro-3,6-difluorobenzyl)thio)-1-(4-fluorophenyl)-N-methyl-N-(pyridin-4-ylmethyl)-1H-imidazole-5-carboxamide]: the activation at 1.1 µM came out at 99%.
For `CN(Cc1ccncc1)C(=O)c1cnc(SCc2cc(F)c(F)cc2Cl)n1-c1ccc(F)cc1` [Compound 618, 2-((2-Chloro-4,5-difluorobenzyl)thio)-1-(4-fluorophenyl)-N-methyl-N-(pyridin-4-ylmethyl)-1H-imidazole-5-carboxamide] the value was 94%.
The result for `CN(Cc1ccncc1)C(=O)c1cnc(SCc2cc(F)cc(F)c2F)n1-c1ccc(F)cc1` [Compound 619, 1-(4-Fluorophenyl)-N-methyl-N-(pyridin-4-ylmethyl)-2-((2,3,5-trifluorobenzyl)thio)-1H-imidazole-5-carboxamide] reads 96%.
For `Cc1ccc(F)c(CSc2ncc(C(=O)N(C)Cc3ccncc3)n2-c2ccc(F)cc2)c1Cl` [Compound 620, 2-((2-Chloro-6-fluoro-3-methylbenzyl)thio)-1-(4-fluorophenyl)-N-methyl-N-(pyridin-4-ylmethyl)-1H-imidazole-5-carboxamide], the activation at 1.1 µM was found to be 99%.
Take `CN(Cc1ccncc1)C(=O)c1cnc(SCc2cccc(C(F)(F)F)c2)n1-c1ccc(F)cc1` [Compound 621, 1-(4-Fluorophenyl)-N-methyl-N-(pyridin-4-ylmethyl)-2-((3-(trifluoromethyl)benzyl)thio)-1H-imidazole-5-carboxamide]: the activation at 1.1 µM was 98%.
For `Cc1ccc(Cl)c(CSc2ncc(C(=O)N(C)Cc3ccncc3)n2-c2ccc(F)cc2)c1F` [Compound 622, 2-((6-Chloro-2-fluoro-3-methylbenzyl)thio)-1-(4-fluorophenyl)-N-methyl-N-(pyridin-4-ylmethyl)-1H-imidazole-5-carboxamide] the value was 100%; for `CCN(Cc1ccncc1)C(=O)c1cnc(SCc2c(Cl)ccc(OC)c2F)n1-c1ccc(F)cc1` [Compound 626, 2-((6-Chloro-2-fluoro-3-methoxybenzyl)thio)-N-ethyl-1-(4-fluorophenyl)-N-(pyridin-4-ylmethyl)-1H-imidazole-5-carboxamide], 100%; for `CCN(Cc1ccncc1)C(=O)c1cnc(SCc2c(Cl)ccc(C)c2F)n1-c1ccc(F)cc1` [Compound 627, 2-((6-Chloro-2-fluoro-3-methylbenzyl)thio)-N-ethyl-1-(4-fluorophenyl)-N-(pyridin-4-ylmethyl)-1H-imidazole-5-carboxamide], 100%.
For `Cc1nn(C)cc1CN(C)C(=O)c1cnc(SCc2nc3ccccc3o2)n1-c1ccc(F)cc1` [Compound 629, 2-((Benzo[d]oxazol-2-ylmethyl)thio)-N-((1,3-dimethyl-1H-pyrazol-4-yl)methyl)-1-(4-fluorophenyl)-N-methyl-1H-imidazole-5-carboxamide], the activation at 1.1 µM is 100%.
